Test results from PubChem BioAssay (NCI).
“And” between values parts separate entries of the source, which are not always exact repeats. Equal values may be shown once.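 Interpolation was linear, between the two tested concentrations surrounding the appropriate level; five concentrations were tested over 48 hours in 96-well plates. GI50 is the concentration that inhibits growth by half. The concentration for full growth arrest is given as TGI.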

How the values were obtained:
Assay in all cases: growth of human tumour cells (NCI), 48 h
DU-145 prostate = system: DU-145 prostate
HOP-62 NSCLC = system: HOP-62 NSCLC
HS 578T breast = system: HS 578T breast
KM12 colon = system: KM12 colon
NCI/ADR-RES ovarian = system: NCI/ADR-RES ovarian
PC-3 prostate = system: PC-3 prostate
SW-620 colon = system: SW-620 colon
TK-10 renal = system: TK-10 renal
U251 CNS = system: U251 CNS
NCI-H522 lung = system: NCI-H522 lung

| Compound | GI50 (DU-145 prostate) | TGI (DU-145 prostate) [µM] | GI50 (HOP-62 NSCLC) [µM] | TGI (HOP-62 NSCLC) [µM] | GI50 (HS 578T breast) | TGI (HS 578T breast) [µM] | GI50 (KM12 colon) [µM] | TGI (KM12 colon) [µM] | GI50 (NCI/ADR-RES ovarian) | TGI (NCI/ADR-RES ovarian) [µM] | GI50 (PC-3 prostate) | TGI (PC-3 prostate) [µM] | GI50 (SW-620 colon) | TGI (SW-620 colon) [µM] | GI50 (TK-10 renal) | TGI (TK-10 renal) [µM] | GI50 (U251 CNS) [µM] | TGI (U251 CNS) [µM] | TGI (NCI-H522 lung) | GI50 (NCI-H522 lung) |
| --- | --- | --- | --- | --- | --- | --- | --- | --- | --- | --- | --- | --- | --- | --- | --- | --- | --- | --- | --- | --- |
| COc1ccc(/C=C\c2cc(OC)c(OC)c(OC)c2)cc1N/C=C\C(=O)c1c[nH]c2ccccc12 | < 0.01 µM | 0.0142 | < 0.01 | > 100 | < 0.01 µM | > 100 | < 0.01 | 0.0254 | < 0.01 µM | 43.3 | < 0.01 µM | > 100 | < 0.01 µM | > 100 | 40.2 µM | > 100 | < 0.01 | 47.8 |  |  |
| CCOC(=O)C1=C(Nc2cccc3ccccc23)OCC1=O |  |  |  | > 100 |  |  |  | > 100 |  |  |  |  |  | > 100 |  |  |  | > 100 | > 100 µM |  |
| C#CCOCn1cnc2c(N)ncnc21 |  |  |  | > 100 |  |  |  | > 100 |  |  |  |  |  | > 100 |  | > 100 |  | > 100 | > 100 µM |  |
| Cc1c(-c2cc(-c3ccccc3)n[nH]c2=O)c2ccccc2n1C |  |  |  | > 100 |  |  |  | > 100 |  |  |  |  |  | > 100 |  | > 100 |  | > 100 | > 100 µM |  |
| CC(C)(C)c1cc(C#N)c2c(c1)C(=O)OC2(c1ccccc1)c1ccccc1C#N (stereo not drawn) |  |  |  | > 100 |  |  |  | > 100 |  |  |  |  |  | > 100 |  | > 100 |  | > 100 | > 100 µM |  |
| C=CCC(O)c1cc(OC)ccc1OC (stereo not drawn) |  |  |  | > 100 |  |  |  | > 100 |  |  |  |  |  | > 100 |  | > 100 |  | > 100 | > 100 µM |  |
| O=C(CC(=O)c1cccc2ccccc12)C(=O)Nc1nccs1 |  |  |  | > 100 |  |  |  | > 100 |  |  |  |  |  | > 100 |  | > 100 |  | > 100 | > 100 µM |  |
| N#CC1=C(N)Oc2c(ccc3cccnc23)C1c1ccccc1 (stereo not drawn) |  |  |  | > 22.9 | 1.73 µM | > 100 |  | 17.1 | 0.464 µM | 12.4 | 2.8 µM | > 100 |  | > 100 |  | 86.8 |  | 36.2 | 12.7 µM | 0.299 µM |
| COc1ccccc1NC(=O)C1=C(C)NC(C)=C(C(=O)Nc2ccccc2OC)C1c1ccc(C2C(C(=O)Nc3ccccc3OC)=C(C)NC(C)=C2C(=O)Nc2ccccc2OC)cc1 |  |  |  | 14 |  |  |  | 3.38 |  |  |  |  |  | 4.06 |  | 16.2 |  | 7.01 | 3.52 µM |  |
| CNC(=O)NCCCCC(NC(=O)OCc1ccccc1)C(=O)OCc1ccccc1 (stereo not drawn) |  |  |  | 29.1 |  |  |  | 71 |  |  |  |  |  | > 100 |  | 52.6 |  | 54.4 | 28.3 µM |  |
| Nc1ncnc2c1N=CN(Oc1ccccc1)N2 |  |  |  |  |  |  |  | > 100 |  |  |  |  |  | > 100 |  | > 100 |  | > 100 |  |  |
| [N-]=[N+]=Nc1nnc(CCCCc2nnc(N=[N+]=[N-])o2)o1 |  |  |  | > 100 |  |  |  | > 100 |  |  |  |  |  | > 100 |  | > 100 |  | > 100 | > 100 µM |  |
| OCC(O)C(OC1OC(CO)C(O)C(O)C1O)c1nn(-c2ccc(Cl)cc2)c2nc3cc(Cl)c(Cl)cc3nc12 (stereo not drawn) |  |  |  | > 100 |  |  |  | > 100 |  |  |  |  |  |  |  | > 100 |  | > 100 | > 100 µM |  |
| O=c1c2cc(Br)ccc2n(C2OC(CO)C(O)C(O)C2O)c(=S)n1-c1ccccc1 (stereo not drawn) |  |  |  | > 100 |  |  |  | > 100 |  |  |  |  |  | > 100 |  | > 100 |  | > 100 | > 100 µM |  |
| COc1ccc(-n2nc(C(=O)NCC(=O)Nc3nc4cc(OC)ccc4s3)c3ccccc3c2=O)cc1 | 0.919 µM |  | 0.663 | 2.07 | 2.54 µM | > 100 |  |  | 1.35 µM |  | 1.26 µM |  | 0.66 µM | > 100 | 0.389 µM | 1.52 | 0.448 | 1.73 | 7.99 µM | 1.69 µM |
| COc1cc2ccnc(-c3n[nH]c4cc(OC)c(OC)cc34)c2cc1OC |  |  |  | > 100 |  |  |  | > 100 |  |  |  |  |  | > 100 |  | > 100 |  | > 100 | 69.7 µM |  |
| C=CC(=O)OCCCS(=O)(=O)[O-].C=CC(=O)OCCCS(=O)(=O)[O-].NC1CCCCC1N.[Pt+4] |  |  |  |  |  |  | > 25 | > 25 |  |  |  |  | > 25 µM | > 25 | > 25 µM | > 25 | > 25 | > 25 | > 25 µM | > 25 µM |
| Nc1ccccc1-n1c2c(c3ccccc3c1=O)C(=O)c1ccccc1-2 |  | > 100 |  | 22.9 |  |  |  | > 100 |  | 51.3 |  | 97.4 |  | > 100 |  |  |  | 60.5 | 25.6 µM |  |
| CC/C(=N/O)C(C)C(=O)CCC(=O)Nc1ccc(Cl)cc1 (stereo not drawn) |  |  |  |  |  |  |  | > 100 |  |  |  |  |  | > 100 |  | > 100 |  | > 100 |  |  |
| CCSc1nnc(-c2ccc3ccccc3c2O)n1-c1ccccc1 | > 100 µM | > 100 | 21.5 | > 100 | > 100 µM | > 100 |  |  |  |  |  |  |  |  |  | > 100 |  |  | > 100 µM | 4.27 µM |
| CC[C@H](C)C(=O)O[C@H]1C[C@@H](C)C=C2C=C[C@H](C)[C@H](CC[C@@H]3C[C@@H](O)CC(=O)O3)[C@H]21 | 43.8 µM and 35.5 µM | > 100 |  | > 100 | 5.08 µM and 5.36 µM | > 100 | 26.4 | > 100 | 2.63 µM and 2.95 µM | > 100 | 0.967 µM and 1.76 µM | > 100 | 10 µM and 10.1 µM | > 100 | 26.3 µM and 19.3 µM | > 100 |  |  | 8.53 µM and 22.3 µM | 1.98 µM and 1.66 µM |
| CC(C)(C)[Si](C)(C)O/N=C\c1cccc(O[Si](C)(C)C(C)(C)C)c1 |  |  |  | 38.9 |  |  |  | 32.2 |  |  |  |  |  | 34.7 |  | 49.8 |  | 31.4 |  |  |
| COC(=O)c1ccc(N/C=C(/C#N)c2ccsc2)cc1 |  |  |  | 28.2 |  |  |  | 32.2 |  |  |  |  |  | 54.7 |  | 30.7 |  | 20.3 |  |  |
| COc1ccc(C2C(C(=O)O)=C(CO)Oc3cc4c(cc32)OCO4)c(OC)c1 (stereo not drawn) |  |  |  | 72 |  |  |  |  |  |  |  |  |  | > 100 |  | > 100 |  | > 100 |  |  |
| CC1=C(C(=O)NCc2ccccc2)C(c2ccc(N(C)C)cc2)C(C(=O)NCc2ccccc2)=C(C)N1 |  |  |  | > 100 |  |  |  | > 100 |  |  |  |  |  | > 100 |  | > 100 |  | > 100 | > 100 µM |  |
